Results as given in publication PMC10882719 (Frontiers in Neuroscience, 2024).
Like-named read-outs stand apart in the source and are kept apart here.

Columns and labels:
Format in all cases: cell-based
168 GPCRs [1] = target: T1, 168 GPCRs (Homo sapiens, UniProt Q96G91); conditions: P2RY11
T1 construct: host or cells: PathHunter cell lines
T1 sequence (Q96G91 1-374): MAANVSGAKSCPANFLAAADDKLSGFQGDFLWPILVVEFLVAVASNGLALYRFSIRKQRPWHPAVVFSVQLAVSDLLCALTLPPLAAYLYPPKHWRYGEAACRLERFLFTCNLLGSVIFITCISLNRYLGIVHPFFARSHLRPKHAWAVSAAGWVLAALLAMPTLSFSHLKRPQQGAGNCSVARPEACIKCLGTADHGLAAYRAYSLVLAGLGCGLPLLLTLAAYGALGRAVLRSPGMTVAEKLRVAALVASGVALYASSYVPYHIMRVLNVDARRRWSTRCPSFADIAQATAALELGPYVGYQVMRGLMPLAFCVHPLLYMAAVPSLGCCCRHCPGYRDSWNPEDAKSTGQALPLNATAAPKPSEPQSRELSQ

168 GPCRs [2] = target: T2, 168 GPCRs (Homo sapiens, UniProt P46092)
T2 construct: host or cells: PathHunter cell lines
T2 sequence (P46092 1-362): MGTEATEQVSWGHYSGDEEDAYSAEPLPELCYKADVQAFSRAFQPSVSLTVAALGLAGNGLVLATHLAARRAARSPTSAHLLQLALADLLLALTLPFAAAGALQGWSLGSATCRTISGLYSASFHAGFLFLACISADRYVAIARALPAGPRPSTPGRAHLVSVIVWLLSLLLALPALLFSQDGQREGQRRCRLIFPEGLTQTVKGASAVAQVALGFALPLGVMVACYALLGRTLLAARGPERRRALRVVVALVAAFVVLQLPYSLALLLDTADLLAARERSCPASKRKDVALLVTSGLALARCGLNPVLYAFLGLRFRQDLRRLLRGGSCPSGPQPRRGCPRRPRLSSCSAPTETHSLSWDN

168 GPCRs [3] = target: T3, 168 GPCRs (Homo sapiens, UniProt P21453)
T3 construct: host or cells: PathHunter cell lines

168 GPCRs [4] = target: T4, 168 GPCRs (Homo sapiens, UniProt P21452); conditions: TACR2
T4 construct: host or cells: PathHunter cell lines
T4 sequence (P21452 1-398): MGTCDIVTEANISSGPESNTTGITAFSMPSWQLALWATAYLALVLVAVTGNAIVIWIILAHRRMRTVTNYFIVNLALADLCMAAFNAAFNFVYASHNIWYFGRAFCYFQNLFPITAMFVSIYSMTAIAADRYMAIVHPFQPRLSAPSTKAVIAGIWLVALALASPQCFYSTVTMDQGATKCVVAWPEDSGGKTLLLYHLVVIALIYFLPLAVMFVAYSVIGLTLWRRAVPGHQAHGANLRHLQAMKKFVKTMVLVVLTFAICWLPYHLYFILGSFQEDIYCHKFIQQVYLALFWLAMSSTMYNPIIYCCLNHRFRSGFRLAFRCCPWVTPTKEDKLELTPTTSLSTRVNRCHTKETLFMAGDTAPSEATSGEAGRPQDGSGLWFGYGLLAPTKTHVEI

168 GPCRs [5] = target: T5, 168 GPCRs (Homo sapiens, UniProt P34972)
T5 construct: host or cells: PathHunter cell lines

168 GPCRs [6] = target: T6, 168 GPCRs (Homo sapiens, UniProt Q9GZQ6); conditions: NPFFR1
T6 construct: host or cells: PathHunter cell lines

168 GPCRs [7] = target: T7, 168 GPCRs (Homo sapiens, UniProt P08913); conditions: ADRA2A
T7 construct: host or cells: PathHunter cell lines
T7 sequence (P08913 1-465): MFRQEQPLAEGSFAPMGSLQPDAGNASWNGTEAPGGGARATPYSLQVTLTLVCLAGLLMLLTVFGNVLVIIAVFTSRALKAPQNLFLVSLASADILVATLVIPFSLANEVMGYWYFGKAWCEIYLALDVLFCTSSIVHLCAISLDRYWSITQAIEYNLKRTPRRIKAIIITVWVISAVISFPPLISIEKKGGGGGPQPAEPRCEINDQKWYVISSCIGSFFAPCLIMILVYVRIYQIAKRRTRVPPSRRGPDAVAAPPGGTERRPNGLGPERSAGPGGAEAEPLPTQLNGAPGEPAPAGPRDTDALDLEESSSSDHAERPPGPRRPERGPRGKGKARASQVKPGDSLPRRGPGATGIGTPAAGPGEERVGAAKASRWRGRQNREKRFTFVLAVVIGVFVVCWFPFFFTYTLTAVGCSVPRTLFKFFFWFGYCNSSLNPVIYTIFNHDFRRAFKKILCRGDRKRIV

T3 sequence (P21453 whole entry): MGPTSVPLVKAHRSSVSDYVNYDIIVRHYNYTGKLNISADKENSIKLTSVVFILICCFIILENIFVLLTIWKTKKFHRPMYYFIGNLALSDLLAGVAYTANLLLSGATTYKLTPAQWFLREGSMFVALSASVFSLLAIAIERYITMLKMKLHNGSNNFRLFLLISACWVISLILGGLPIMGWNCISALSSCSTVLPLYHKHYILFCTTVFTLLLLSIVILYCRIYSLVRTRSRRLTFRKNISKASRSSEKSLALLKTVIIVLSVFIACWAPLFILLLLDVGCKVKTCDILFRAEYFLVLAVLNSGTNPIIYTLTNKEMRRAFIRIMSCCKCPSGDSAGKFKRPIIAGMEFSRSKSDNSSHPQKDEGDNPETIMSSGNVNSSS
T5 sequence (P34972 whole entry): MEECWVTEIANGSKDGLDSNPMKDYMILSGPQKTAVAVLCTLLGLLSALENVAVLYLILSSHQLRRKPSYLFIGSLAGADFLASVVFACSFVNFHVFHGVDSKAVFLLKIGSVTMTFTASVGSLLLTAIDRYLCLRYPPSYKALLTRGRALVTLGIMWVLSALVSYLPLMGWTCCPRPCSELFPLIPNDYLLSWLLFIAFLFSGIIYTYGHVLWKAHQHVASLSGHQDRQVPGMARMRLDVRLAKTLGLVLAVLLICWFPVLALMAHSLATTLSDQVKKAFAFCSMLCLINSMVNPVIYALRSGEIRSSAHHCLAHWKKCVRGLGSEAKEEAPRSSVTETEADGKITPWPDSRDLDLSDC
T6 sequence (Q9GZQ6 whole entry): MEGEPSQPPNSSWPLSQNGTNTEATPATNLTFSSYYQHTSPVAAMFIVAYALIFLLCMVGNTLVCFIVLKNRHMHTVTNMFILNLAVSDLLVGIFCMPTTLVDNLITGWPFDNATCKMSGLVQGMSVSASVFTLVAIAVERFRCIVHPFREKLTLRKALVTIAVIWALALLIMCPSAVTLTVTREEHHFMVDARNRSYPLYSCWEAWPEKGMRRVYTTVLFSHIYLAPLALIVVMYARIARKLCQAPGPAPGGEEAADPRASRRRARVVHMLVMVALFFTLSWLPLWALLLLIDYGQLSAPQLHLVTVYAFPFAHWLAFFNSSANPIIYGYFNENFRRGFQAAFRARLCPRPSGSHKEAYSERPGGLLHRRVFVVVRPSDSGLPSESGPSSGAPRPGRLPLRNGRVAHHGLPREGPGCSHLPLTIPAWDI

| Structure (SMILES) | % Agonist Activity (168 GPCRs [1]; Conc 1 uM) [%] | % Antagonist Activity (168 GPCRs [1]; Conc 1 uM) [%] | % Agonist Activity (168 GPCRs [1]; Conc 10 uM) [%] | % Antagonist Activity (168 GPCRs [1]; Conc 10 uM) [%] | % Agonist Activity (168 GPCRs [2]; CCR10, 1 uM) [%] | % Antagonist Activity (168 GPCRs [2]; CCR10, 1 uM) [%] | % Agonist Activity (168 GPCRs [2]; CCR10, 10 uM) [%] | % Antagonist Activity (168 GPCRs [2]; CCR10, 10 uM) [%] | % Agonist Activity (168 GPCRs [3]; EDG1, 1 uM) [%] | % Antagonist Activity (168 GPCRs [3]; EDG1, 1 uM) [%] | % Agonist Activity (168 GPCRs [3]; EDG1, 10 uM) [%] | % Antagonist Activity (168 GPCRs [3]; EDG1, 10 uM) [%] | % Agonist Activity (168 GPCRs [4]; Conc 1 uM) [%] | % Antagonist Activity (168 GPCRs [4]; Conc 1 uM) [%] | % Agonist Activity (168 GPCRs [4]; Conc 10 uM) [%] | % Antagonist Activity (168 GPCRs [4]; Conc 10 uM) [%] | % Agonist Activity (168 GPCRs [5]; CNR2, 1 uM) [%] | % Antagonist Activity (168 GPCRs [5]; CNR2, 1 uM) [%] | % Agonist Activity (168 GPCRs [5]; CNR2, 10 uM) [%] | % Antagonist Activity (168 GPCRs [5]; CNR2, 10 uM) [%] | also measured |
| --- | --- | --- | --- | --- | --- | --- | --- | --- | --- | --- | --- | --- | --- | --- | --- | --- | --- | --- | --- | --- | --- |
| CNC(C)Cc1ccc2c(c1)OCO2 (centres unmarked) [MDMA, 3,4-Methylenedioxy methamphetamine, reference compound] | 0.3 | 17.9 | 0.7 | 9 | -1.1 | 8.9 | -0.7 | 12.1 | 0 | 3.5 | -0.6 | -12.4 | 0.1 | 12.5 | -0.1 | 10.7 | 0.1 | 8.9 | -6.8 | 7.8 | % Agonist Activity (168 GPCRs [6]; Conc 1 uM): -3.2%; % Antagonist Activity (168 GPCRs [6]; Conc 1 uM): 17.7%; % Agonist Activity (168 GPCRs [6]; Conc 10 uM): -5.5%; % Antagonist Activity (168 GPCRs [6]; Conc 10 uM): 20.8%; % Agonist Activity (168 GPCRs [7]; 1 uM): 7%; % Antagonist Activity (168 GPCRs [7]; 1 uM): -5%; % Agonist Activity (168 GPCRs [7]; 10 uM): 6.5%; % Antagonist Activity (168 GPCRs [7]; 10 uM): -13.9% |
| CNC(C)C(=O)c1ccc2c(c1)OCO2 (centres unmarked) [methylone] | 0.5 | 2.7 | -0.3 | 6.6 | -2 | 5.4 | -1.8 | 2.6 | 0.1 | 12.4 | 0.4 | 10.5 | -1.9 | 10 | -3.3 | 9.1 | 7 | 3.6 | 3.2 | -3.2 | % Agonist Activity (168 GPCRs [6]; Conc 1 uM): -4.6%; % Antagonist Activity (168 GPCRs [6]; Conc 1 uM): 32%; % Agonist Activity (168 GPCRs [6]; Conc 10 uM): -5.6%; % Antagonist Activity (168 GPCRs [6]; Conc 10 uM): 27.1%; % Agonist Activity (168 GPCRs [7]; 1 uM): -3.8%; % Antagonist Activity (168 GPCRs [7]; 1 uM): -4.6%; % Agonist Activity (168 GPCRs [7]; 10 uM): -3.8%; % Antagonist Activity (168 GPCRs [7]; 10 uM): 1.9% |
